{
  "source": "patent US8029830B2",
  "about": "“Composition and method for promoting internal health and external appearance” (Nuvocare Health Services Inc., priority 2008, dated 2011)",
  "origin": "cited, not measured here",
  "key": {"[1]": {"tested_on": "persons with type 2 diabetes mellitus"}, "healthy volunteers": {"tested_on": "healthy volunteers", "details": "daily oral, 8 weeks"}, "sedentary human subjects": {"tested_on": "sedentary human subjects", "details": "for body fat percentage, body fat mass and lean body mass: oral ingestion for 12 weeks"}, "rat kidney fibroblasts": {"tested_on": "rat kidney fibroblasts", "details": "UVA light"}, "[2]": {"details": "28 days of supplementation"}, "male subjects": {"tested_on": "male subjects", "details": "cycling capacity"}, "pigs": {"tested_on": "pigs", "details": "pretreatment; hyperbaric oxygen (HBO)"}, "mice": {"tested_on": "mice", "details": "topical application"}, "[3]": {"tested_on": "human plasma, blood platelets and lymphocytes"}, "[4]": {"tested_on": "rat model of diabetic neuropathy", "details": "intraperitoneal treatment for 2 weeks"}, "[5]": {"tested_on": "lean volunteers and post-obese subjects"}, "rats": {"tested_on": "rats", "details": "rat, in vivo"}, "older and younger women": {"tested_on": "older and younger women", "details": "following caffeine ingestion"}, "[6]": {"details": "human, in vivo"}, "thymocytes": {"tested_on": "thymocytes", "details": "irradiated (6 Gy)"}, "macrophage cultures": {"tested_on": "macrophage cultures", "details": "impairment induced by phorbol esters"}, "[7]": {"details": "in vitro"}, "healthy human volunteers": {"tested_on": "healthy human volunteers", "details": "at the end of the treatment period"}},
  "note": "Like-named read-outs stand apart in the source and are kept apart here.",
  "data": [
    {"compound": "[Zn]", "note": "[zinc]", "values": [
      {"measurement": "decrease of plasma TBARS", "setting": "[1]; after six months", "value": 15, "unit": "%"},
      {"measurement": "plasma zinc values", "setting": "[1]; after three and six months of supplementation, all subjects", "value": "greater than 10.7 micro mol/L"},
      {"measurement": "plasma levels of lipid peroxidation products and DNA adducts", "setting": "healthy volunteers", "value": "decreased"}
    ]},
    {"compound": "C=C[C@@]1(C)CC(=O)[C@]2(O)[C@@]3(C)[C@@H](O)CCC(C)(C)[C@@H]3[C@H](O)[C@H](OC(C)=O)[C@@]2(C)O1", "note": "[forskholin]", "values": [
      {"measurement": "lean body mass gained, on average", "setting": "sedentary human subjects; in the course of the study", "value": 8.2, "unit": "pounds"},
      {"measurement": "body fat percentage, body fat mass and lean body mass", "setting": "sedentary human subjects", "value": "significantly decrease body fat percentage while increasing lean body mass"},
      {"measurement": "body fat percentage, body fat mass and lean body mass", "setting": "sedentary human subjects; listed as forkohlin", "value": "decreasing body fat percentage and body fat mass"}
    ]},
    {"compound": "CC1=C(/C=C/C(C)=C/C=C/C(C)=C/C=C/C=C(C)/C=C/C=C(C)/C=C/C2=C(C)C(=O)[C@@H](O)CC2(C)C)C(C)(C)C[C@H](O)C1=O", "note": "[astaxanthin]", "values": [
      {"measurement": "plasma 12- and 15-hydroxy fatty acids", "setting": "healthy subjects; during supplementation", "value": "reduced significantly"},
      {"measurement": "plasma astaxanthin levels", "setting": "healthy subjects; in vivo", "value": "significantly elevated"},
      {"measurement": "tolerability", "setting": "healthy subjects; in vivo", "value": "well tolerated"},
      {"measurement": "improvement in skin-surface-moisture", "setting": "middle-aged women; oral delivery, after 6 weeks", "value": 52, "unit": "%"},
      {"measurement": "reduction in wrinkles", "setting": "middle-aged women; oral delivery, after 6 weeks", "value": 54, "unit": "%"},
      {"measurement": "fine lines and wrinkles, elasticity and moisture content", "setting": "middle-aged women; six weeks, instrumentation and dermatologist's review", "value": "significant improvements"},
      {"measurement": "indices of oxidative stress (CAT, SOD activities, TBARS)", "setting": "rat kidney fibroblasts", "value": "inhibit these indices of oxidative stress"},
      {"measurement": "protective properties compared to beta-carotene and lutein", "setting": "rat kidney fibroblasts", "value": "superior protective properties"}
    ]},
    {"compound": "NCCC(=O)O", "note": "[beta-alanine]", "values": [
      {"measurement": "muscle carnosine levels", "setting": "vastus lateralis", "value": "significant increases"},
      {"measurement": "onset of neuromuscular fatigue and ventilatory threshold", "setting": "women subjects; 4 weeks, submaximal workloads", "value": "delayed"},
      {"measurement": "time-to-exhaustion", "setting": "women subjects; maximal cycle ergometry performance", "value": "increased"},
      {"measurement": "increase in PWCFT", "setting": "[2]", "value": 14.5, "unit": "%"},
      {"measurement": "muscle carnosine level and total work done", "setting": "male subjects", "value": "significant muscle carnosine level increases, as well as an increase in total work done"}
    ]},
    {"compound": "superoxide dismutase", "values": [
      {"measurement": "DNA strand-break damage", "setting": "pigs", "value": "protected against DNA strand-break damage"}
    ]},
    {"compound": "epigallocatechin-3-gallate [EGCG]", "values": [
      {"measurement": "UVB-induced skin tumor development", "setting": "mice", "value": "prevents UVB-induced skin tumor development"}
    ]},
    {"compound": "Oc1ccc(C=Cc2cc(O)cc(O)c2)cc1", "note": "[resveratrol]", "values": [
      {"measurement": "oxidative stress levels in plasma", "setting": "[3]; after incubation with platinum compounds", "value": "distinct reduction"},
      {"measurement": "biomarker of lipid peroxidation", "setting": "[3]; control blood platelets and platelets treated with platinum compounds", "value": "decreased the production"},
      {"measurement": "DNA damage (measured by comet assay)", "setting": "[3]; lymphocytes, vs platinum compounds without resveratrol", "value": "significant decrease"},
      {"measurement": "pathologies associated with diabetic neuropathy", "setting": "[4]", "value": "protective effects"}
    ]},
    {"compound": "Cn1c(=O)c2c(ncn2C)n(C)c1=O", "note": "[caffeine]", "values": [
      {"measurement": "subsequent 12-h night EE", "setting": "[5]; in vivo", "value": "no influence"},
      {"measurement": "increase in daily EE", "setting": "[5]; lean volunteers", "value": 150, "unit": "kcal"},
      {"measurement": "increase in daily EE", "setting": "[5]; post-obese subjects", "value": 79, "unit": "kcal"},
      {"measurement": "increase of energy expenditure (EE)", "setting": "[5]; repeated administration at 2-hour intervals over a 12-hour day period, two subject groups", "value": "8-11%"},
      {"measurement": "neurodegeneration", "setting": "rats", "value": "protective effects"},
      {"measurement": "energy expenditure", "setting": "older and younger women", "value": "increased energy expenditure significantly"},
      {"measurement": "energy expenditure", "setting": "[6]", "value": "increased energy expenditure dose dependently"}
    ]},
    {"compound": "CC[C@H](CC[C@@H](C)[C@H]1CC[C@H]2[C@@H]3CC=C4C[C@@H](O)CC[C@]4(C)[C@H]3CC[C@]12C)C(C)C", "note": "[beta-sitosterol]", "values": [
      {"measurement": "activities of antioxidant enzymes (SOD, CAT, GPx)", "setting": "thymocytes", "value": "increasing"},
      {"measurement": "intracellular reactive oxygen species (ROS)", "setting": "thymocytes", "value": "attenuating"},
      {"measurement": "irradiation-induced cell death and nuclear DNA strand breaks", "setting": "thymocytes", "value": "decreased"},
      {"measurement": "glutathione/oxidized glutathione ratio", "setting": "macrophage cultures", "value": "reverts the impairment"},
      {"measurement": "radical scavenging", "setting": "[7]", "value": "modest radical scavenger"}
    ]},
    {"compound": "vitamin E", "values": [
      {"measurement": "decrease of urine lipid peroxidation products", "setting": "healthy human volunteers", "value": 27, "unit": "%"}
    ]}
  ]
}
